ChEMBL document CHEMBL1201862, “PubChem BioAssay data set” (2004)
Active and inactive are the calls of the source.

Tests used:
[1] = molecular target: T1, Apoptotic protease-activating factor 1 (Homo sapiens, UniProt O14727); type: functional
T1 sequence (O14727 whole entry): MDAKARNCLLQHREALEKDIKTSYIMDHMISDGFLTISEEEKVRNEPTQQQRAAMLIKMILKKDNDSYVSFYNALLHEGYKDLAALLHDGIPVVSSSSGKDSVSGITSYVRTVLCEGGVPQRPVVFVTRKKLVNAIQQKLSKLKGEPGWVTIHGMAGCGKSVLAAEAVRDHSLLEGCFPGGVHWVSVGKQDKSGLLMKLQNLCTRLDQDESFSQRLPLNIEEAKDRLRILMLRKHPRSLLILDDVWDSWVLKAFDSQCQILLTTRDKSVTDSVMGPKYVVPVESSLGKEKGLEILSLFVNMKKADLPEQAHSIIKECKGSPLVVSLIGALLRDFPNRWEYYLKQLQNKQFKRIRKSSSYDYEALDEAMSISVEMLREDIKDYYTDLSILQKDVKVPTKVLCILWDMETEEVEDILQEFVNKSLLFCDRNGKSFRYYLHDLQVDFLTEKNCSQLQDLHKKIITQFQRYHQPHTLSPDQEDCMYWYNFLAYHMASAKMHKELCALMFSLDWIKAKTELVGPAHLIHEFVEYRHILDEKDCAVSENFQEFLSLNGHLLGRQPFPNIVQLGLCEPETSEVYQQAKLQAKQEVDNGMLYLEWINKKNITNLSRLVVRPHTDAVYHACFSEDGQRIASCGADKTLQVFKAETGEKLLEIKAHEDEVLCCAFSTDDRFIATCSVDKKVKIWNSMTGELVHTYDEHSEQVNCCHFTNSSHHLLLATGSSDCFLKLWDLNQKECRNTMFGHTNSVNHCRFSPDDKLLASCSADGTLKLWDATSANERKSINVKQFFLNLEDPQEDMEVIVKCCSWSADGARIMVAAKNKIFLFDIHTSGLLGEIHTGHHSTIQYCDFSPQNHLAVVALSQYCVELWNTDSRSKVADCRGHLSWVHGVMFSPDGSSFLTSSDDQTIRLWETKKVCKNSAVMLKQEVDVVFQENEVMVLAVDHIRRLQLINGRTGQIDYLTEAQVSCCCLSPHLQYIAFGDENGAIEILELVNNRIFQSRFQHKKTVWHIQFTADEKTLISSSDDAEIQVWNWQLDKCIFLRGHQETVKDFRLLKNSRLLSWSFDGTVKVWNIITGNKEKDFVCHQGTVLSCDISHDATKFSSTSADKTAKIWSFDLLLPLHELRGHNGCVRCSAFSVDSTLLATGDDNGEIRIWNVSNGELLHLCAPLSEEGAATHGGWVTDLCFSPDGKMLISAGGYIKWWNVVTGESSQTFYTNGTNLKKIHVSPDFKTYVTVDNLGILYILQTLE

[2] = molecular target: T2, Polyadenylate-binding protein 1 (Homo sapiens, UniProt P11940); test: PABP1 MLLE–PAM2 interaction inhibitors, dose response, miRNA deadenylation inhibitor project, biochemical, fluorescence polarization, Cy5-PAM2 peptide, secondary (AID 602260); type: functional; conditions: read-out: IC50_Mean
[3] = molecular target: T2, Polyadenylate-binding protein 1; test: PABP1 MLLE–PAM2 binding inhibitor potency, dose response, biochemical, fluorescence polarization, FITC-PAM2 peptide (AID 602259); type: functional; conditions: read-out: IC50_Mean
[4] = molecular target: FAD-linked sulfhydryl oxidase ALR (Homo sapiens, UniProt P55789); test: inhibitors of human ALR sulfhydryl oxidase, dose response, biochemical, H2O2 detection, luminescence, cherry-pick (AID 493248)
[5] = molecular target: T3, Oxysterols receptor LXR-beta (Homo sapiens, UniProt P55055); type: functional, cell-based;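 also: agonist activity at LXR measured by a cell-based luminescence readout across a dose range, run as a counterscreen for daf-12 agonists; HEK293 cells with Gal4-LXR fusion and GAL4-driven luciferase reporter; potency for activation of Gal4-LXR reporter so compounds are agonists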
T3 sequence (P55055 whole entry): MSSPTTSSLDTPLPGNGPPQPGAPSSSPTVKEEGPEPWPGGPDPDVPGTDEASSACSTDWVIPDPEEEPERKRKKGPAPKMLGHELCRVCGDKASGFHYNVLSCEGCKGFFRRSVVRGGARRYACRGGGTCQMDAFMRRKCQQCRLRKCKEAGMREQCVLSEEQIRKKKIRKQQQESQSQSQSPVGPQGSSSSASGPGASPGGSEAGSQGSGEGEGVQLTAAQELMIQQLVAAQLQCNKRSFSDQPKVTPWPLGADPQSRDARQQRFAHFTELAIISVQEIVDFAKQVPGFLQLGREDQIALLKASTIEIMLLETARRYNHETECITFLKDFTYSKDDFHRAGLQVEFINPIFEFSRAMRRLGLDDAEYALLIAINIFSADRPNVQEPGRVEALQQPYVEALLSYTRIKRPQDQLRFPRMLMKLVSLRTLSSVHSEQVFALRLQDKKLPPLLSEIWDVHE

[6] = molecular target: T4, Ubiquitin-conjugating enzyme E2 N (Homo sapiens, UniProt P61088); type: functional;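 also: Dose-response confirmation in a TR-FRET assay detecting UBC13-driven polyubiquitin chain formation, inhibition measured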
T4 sequence (P61088 whole entry): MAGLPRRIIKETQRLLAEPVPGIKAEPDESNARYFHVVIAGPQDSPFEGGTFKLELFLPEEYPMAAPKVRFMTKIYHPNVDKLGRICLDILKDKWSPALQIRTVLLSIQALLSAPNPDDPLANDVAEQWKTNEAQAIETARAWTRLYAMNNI

[7] = inhibitors of HIV Env-driven cell fusion, dose response, cherry-pick (AID 652057); type: functional, cell-based
[8] = ZM109 Env clade C HIV-1 fusion inhibitors, dose response, HeLa effector, CEM target cells, luciferase, cherry-pick (AID 652058); type: functional, cell-based
[9] = off-target signal loss in HeLa-CEM21 co-culture – HeLa F-luc CTL cells, cherry-picked, counter-screen for HIV-1 Env fusion inhibitor project, dose response (AID 652040); type: functional, cell-based;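 also: potency for signal decrease marking cytotoxic or nonspecific inhibition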
[10] = inhibitors of clade B AD8 Env fusion, dose response, cell-based, cherry-pick (AID 652062); type: functional;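 also: luciferase signal from cell-cell fusion driven by HIV-1 clade B AD8 Env; potency is for inhibitors of fusion seen as a drop in luminescence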
H4 = test: Luminescence Cell-Based Dose Response HTS to Identify Activators of 5'UTR Stem-Loop Driven Prion Protein mRNA Translation in H4 Neuroglioblastoma Cells. [Related pubchem assays: 1829 (Project Summary), 1814 (Primary HTS)]; type: functional; conditions: Homo sapiens
[11] = tested on: Streptococcus sp. 'group A'; test: growth inhibition of control SK(-) GAS strain, dose response, counter-screen for streptokinase expression inhibitor project, luminescence, kanamycin, BacTiterGlo, confirmation (AID 1900); type: functional, organism-based
Streptokinase A = molecular target: T5, Streptokinase A (Streptococcus pyogenes serotype M1, UniProt P10520); test: S. pyogenes streptokinase expression inhibitors, potency, dose response, plasminogen activation absorbance, OD405 (AID 1914); type: functional, Streptococcus pyogenes M1 GAS;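 also: secreted streptokinase activity via plasminogen activation per viability signal from cell pellet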
T5 sequence (P10520 whole entry): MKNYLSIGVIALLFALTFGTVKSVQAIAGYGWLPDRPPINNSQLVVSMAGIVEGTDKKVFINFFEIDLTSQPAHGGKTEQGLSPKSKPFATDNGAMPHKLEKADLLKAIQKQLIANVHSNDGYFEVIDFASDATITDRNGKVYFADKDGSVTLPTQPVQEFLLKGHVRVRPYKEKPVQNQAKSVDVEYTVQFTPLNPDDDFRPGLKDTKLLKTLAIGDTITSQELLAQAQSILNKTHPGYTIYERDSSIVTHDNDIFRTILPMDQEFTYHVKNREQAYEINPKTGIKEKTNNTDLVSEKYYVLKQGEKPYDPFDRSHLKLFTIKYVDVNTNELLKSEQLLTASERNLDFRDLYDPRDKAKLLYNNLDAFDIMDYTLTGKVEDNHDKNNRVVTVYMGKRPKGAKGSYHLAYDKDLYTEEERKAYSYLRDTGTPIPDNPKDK

[12] = molecular target: Induced myeloid leukemia cell differentiation protein Mcl-1 (Homo sapiens, UniProt Q07820); type: functional
Streptococcus = test: Group A Streptococcus viability loss, dose response, counter-screen for streptokinase expression inhibitor project, luminescence, BacTiterGlo (AID 1915); type: functional, organism-based;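 also: potency for reduction of bacterial viability or growth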
Fatty acid synthase [13] = molecular target: T6, Fatty acid synthase (Homo sapiens, UniProt P49327); test: FAS thioesterase domain inhibitors, dose response, biochemical, endpoint fluorescence intensity, uHTS hits (AID 624327); type: functional;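 also: fluorescence from hydrolysis of an O-methyl fluorescein acyl ester substrate by the enzyme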
Fatty acid synthase [14] = molecular target: T6, Fatty acid synthase; test: FAS thioesterase domain inhibitors, dose response, biochemical, kinetic fluorescence intensity (AID 624326); type: functional;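 also: rate of fluorescence rise from hydrolysis of a fluorogenic O-methyl fluorescein ester substrate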
[15] = inhibitors of intracellular T. cruzi replication, confirmation, NIH3T3 host cells, beta-gal luminescence (AID 2044); type: functional, cell-based;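 also: intracellular parasites grown in NIH/3T3 mouse fibroblasts as host cells; luminescent beta-galactosidase reporter signal from transgenic T. cruzi replicating inside host cells; inhibitors lower the luminescence signal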
[16] = cytotoxicity toward NIH3T3 fibroblasts, dose response, counter-screen, cell-based, ATP luminescence, mouse fibroblasts (AID 2010); type: functional;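 also: cells exposed to compound for about 90 hours before reading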
Vero = test: cells; type: functional; conditions: Chlorocebus sabaeus
[17] = Luminescence Cell-Based Dose Retest to Confirm Inhibitors of Cancer Stem Cells. [Related pubchem assays (depositor defined):AID2717, AID2721]; type: functional; conditions: Homo sapiens

Chain of FAD-linked sulfhydryl oxidase ALR (P55789 whole entry, the tested form may be a part): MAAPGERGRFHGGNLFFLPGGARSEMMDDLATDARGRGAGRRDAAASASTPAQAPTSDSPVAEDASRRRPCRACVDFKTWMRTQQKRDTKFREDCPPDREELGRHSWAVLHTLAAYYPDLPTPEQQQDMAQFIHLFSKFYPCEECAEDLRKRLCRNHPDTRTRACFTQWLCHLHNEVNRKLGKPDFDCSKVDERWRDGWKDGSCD
T6 sequence (P49327 whole entry, the tested form may be a part): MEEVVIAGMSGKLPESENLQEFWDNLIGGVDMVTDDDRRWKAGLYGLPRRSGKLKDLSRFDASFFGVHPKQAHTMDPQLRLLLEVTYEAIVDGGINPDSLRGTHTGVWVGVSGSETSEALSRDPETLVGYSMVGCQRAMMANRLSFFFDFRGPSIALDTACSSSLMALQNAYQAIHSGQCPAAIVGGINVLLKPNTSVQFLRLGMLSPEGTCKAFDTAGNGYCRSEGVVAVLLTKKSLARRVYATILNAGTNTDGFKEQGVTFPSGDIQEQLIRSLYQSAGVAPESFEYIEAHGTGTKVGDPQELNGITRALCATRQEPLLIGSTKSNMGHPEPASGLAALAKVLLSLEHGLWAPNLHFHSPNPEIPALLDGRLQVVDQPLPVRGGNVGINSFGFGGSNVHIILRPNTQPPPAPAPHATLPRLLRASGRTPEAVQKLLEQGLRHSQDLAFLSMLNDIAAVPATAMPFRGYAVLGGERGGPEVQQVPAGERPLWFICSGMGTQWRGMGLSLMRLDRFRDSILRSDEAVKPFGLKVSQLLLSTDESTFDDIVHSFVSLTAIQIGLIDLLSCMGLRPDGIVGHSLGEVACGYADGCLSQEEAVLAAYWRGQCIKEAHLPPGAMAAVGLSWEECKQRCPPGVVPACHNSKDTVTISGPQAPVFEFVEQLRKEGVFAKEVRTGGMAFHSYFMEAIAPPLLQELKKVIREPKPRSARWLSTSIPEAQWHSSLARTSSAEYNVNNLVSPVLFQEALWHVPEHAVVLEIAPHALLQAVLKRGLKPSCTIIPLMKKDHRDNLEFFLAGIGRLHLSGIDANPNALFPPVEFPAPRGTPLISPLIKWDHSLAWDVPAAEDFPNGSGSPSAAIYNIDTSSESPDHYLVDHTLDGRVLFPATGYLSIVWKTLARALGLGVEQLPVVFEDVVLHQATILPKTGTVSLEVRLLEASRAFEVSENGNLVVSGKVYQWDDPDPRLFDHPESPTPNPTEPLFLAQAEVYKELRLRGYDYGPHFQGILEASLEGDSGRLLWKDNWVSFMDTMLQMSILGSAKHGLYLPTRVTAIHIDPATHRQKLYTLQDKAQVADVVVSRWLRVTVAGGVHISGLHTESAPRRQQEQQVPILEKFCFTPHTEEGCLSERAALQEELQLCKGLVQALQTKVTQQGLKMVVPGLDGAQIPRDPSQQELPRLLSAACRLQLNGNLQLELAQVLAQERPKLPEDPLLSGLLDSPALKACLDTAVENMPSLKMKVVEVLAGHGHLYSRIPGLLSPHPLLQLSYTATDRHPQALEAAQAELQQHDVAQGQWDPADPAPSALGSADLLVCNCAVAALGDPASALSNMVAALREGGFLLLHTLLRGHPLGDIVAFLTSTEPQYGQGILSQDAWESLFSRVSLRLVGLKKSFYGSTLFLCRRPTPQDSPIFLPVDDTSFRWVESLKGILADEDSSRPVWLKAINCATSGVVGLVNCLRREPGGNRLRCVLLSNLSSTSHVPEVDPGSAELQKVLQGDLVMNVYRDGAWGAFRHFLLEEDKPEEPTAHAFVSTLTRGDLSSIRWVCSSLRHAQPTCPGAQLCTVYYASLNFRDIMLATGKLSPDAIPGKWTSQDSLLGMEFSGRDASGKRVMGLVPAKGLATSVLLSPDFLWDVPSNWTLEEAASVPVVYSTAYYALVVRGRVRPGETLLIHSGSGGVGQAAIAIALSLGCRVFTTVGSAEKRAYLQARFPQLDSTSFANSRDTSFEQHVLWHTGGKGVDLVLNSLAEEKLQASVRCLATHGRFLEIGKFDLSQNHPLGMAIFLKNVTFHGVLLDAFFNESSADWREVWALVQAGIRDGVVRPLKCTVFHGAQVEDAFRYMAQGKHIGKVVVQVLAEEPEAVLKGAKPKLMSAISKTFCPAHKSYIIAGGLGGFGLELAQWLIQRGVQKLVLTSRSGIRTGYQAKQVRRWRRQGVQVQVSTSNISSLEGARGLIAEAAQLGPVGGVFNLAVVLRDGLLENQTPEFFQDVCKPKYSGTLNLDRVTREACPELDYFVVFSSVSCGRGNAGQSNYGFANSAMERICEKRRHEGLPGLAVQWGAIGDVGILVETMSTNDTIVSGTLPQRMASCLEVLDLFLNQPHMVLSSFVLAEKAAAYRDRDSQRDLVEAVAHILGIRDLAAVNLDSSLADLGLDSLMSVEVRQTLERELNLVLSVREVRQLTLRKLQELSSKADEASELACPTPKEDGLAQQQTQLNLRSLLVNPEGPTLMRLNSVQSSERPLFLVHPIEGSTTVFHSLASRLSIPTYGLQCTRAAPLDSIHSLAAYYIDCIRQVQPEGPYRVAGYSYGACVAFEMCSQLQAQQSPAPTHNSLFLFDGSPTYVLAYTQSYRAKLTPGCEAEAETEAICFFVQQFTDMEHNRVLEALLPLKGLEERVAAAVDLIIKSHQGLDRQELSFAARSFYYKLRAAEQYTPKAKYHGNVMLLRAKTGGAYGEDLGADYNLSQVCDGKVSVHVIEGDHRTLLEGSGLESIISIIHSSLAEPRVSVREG
T2 sequence (P11940 whole entry): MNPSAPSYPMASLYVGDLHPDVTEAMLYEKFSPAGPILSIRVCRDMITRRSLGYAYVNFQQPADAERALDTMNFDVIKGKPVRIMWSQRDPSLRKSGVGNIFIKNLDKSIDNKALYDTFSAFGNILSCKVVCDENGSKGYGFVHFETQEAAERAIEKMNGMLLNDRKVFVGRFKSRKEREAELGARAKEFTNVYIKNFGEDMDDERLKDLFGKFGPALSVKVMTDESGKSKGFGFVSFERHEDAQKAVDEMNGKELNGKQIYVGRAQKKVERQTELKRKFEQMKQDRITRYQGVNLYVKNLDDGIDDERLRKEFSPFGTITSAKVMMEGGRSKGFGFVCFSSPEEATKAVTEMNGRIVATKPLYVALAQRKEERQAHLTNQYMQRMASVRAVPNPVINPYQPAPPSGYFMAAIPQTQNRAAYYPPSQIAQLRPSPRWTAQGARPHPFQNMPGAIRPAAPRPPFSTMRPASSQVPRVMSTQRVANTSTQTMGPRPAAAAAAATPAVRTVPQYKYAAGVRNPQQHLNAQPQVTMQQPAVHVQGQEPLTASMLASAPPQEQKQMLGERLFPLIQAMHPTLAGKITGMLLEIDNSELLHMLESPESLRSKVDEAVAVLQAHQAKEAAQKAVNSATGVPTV
Chain of Induced myeloid leukemia cell differentiation protein Mcl-1 (Q07820 whole entry): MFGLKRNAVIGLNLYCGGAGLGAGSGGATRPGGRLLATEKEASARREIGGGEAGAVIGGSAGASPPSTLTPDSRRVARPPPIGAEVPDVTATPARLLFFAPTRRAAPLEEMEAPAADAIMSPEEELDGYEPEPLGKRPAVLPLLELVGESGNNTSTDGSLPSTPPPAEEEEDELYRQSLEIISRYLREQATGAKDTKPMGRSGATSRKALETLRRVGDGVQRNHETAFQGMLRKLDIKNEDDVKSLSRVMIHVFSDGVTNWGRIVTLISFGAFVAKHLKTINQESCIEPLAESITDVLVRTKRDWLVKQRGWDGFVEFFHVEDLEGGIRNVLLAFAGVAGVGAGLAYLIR

## CN(C)S(=O)(=O)c1ccc2oc(SCC(=O)Nc3ccccc3F)nc2c1
[1]
  IC50: 7.98 µM (active)

## Nc1nc(-c2cccc(F)c2)cs1
[2]
  IC50: > 66 µM (inactive)
[3]
  IC50: > 66 µM (inactive)

## CN(c1ccccc1)S(=O)(=O)c1cccc(C(=O)NC2CCCCC2)c1
[2]
  IC50: > 66 µM (inactive)
[3]
  IC50: > 66 µM (inactive)

## COc1cccc(NC(=O)NNC(=O)CCc2ccc(O)c(O)c2)c1
[4]
  AC50: 3.12 µM (active)

## CCN(CC(=O)Nc1ccccc1OC)C(=O)c1ccccc1Sc1ccccc1C#N
[1]
  IC50: > 100 µM (inactive)

## CCOC(=O)N1CCC(NC(=O)c2cc3ccccn3n2)CC1
[5]
  EC50: > 67.5 µM (inactive)

## C1=C(c2ccco2)N2CCN=C2S1
[4]
  AC50: 2.33 µM (active)

## COC(=O)Cc1ccc(O)c(N)c1
[4]
  AC50: 21.6 µM (active)

## COc1ccc(C[C@H]2CN3C(=NC[C@H]3Cc3ccccc3)N2CCNC(=O)c2ccc(C)c(Br)c2)cc1
[6]
  IC50: > 20 µM (inactive)
[1]
  IC50: > 100 µM (inactive)

## COc1cc2c(c(OCC(=O)NC(C)C)c1)C(=O)O[C@@H](C)CCCC(=O)CCCCC2
[2]
  IC50: > 66 µM (inactive)
[3]
  IC50: 63.7 µM (inactive)
[7]
  AC50: 4.35 µM (active)
[8]
  AC50: 4.75 µM (active)
[9]
  AC50: 5.78 µM (active)
[10]
  AC50: 11.3 µM (active)

## Cc1cc(C(=O)NC2CCCCC2)c(C)n1-c1ccc(F)cc1
H4
  EC50: 0.455 µM (active)
[5]
  EC50: > 67.5 µM (inactive)

## O=C(O)CCc1ccc(-c2ccccc2)n1NC(=O)c1sc2ccccc2c1Cl
[4]
  AC50: 1.72 µM (active)

## CCOc1ccc(NC(=S)NC(=O)c2cccnc2)c([N+](=O)[O-])c1
[2]
  IC50: > 66 µM (inactive)
[3]
  IC50: > 66 µM (inactive)

## O=C(Nc1ccc2[nH]c(-c3ccc4[nH]cnc4c3)nc2c1)c1cccs1
[11]
  EC50: > 150 µM (not active)
Streptokinase A
  EC50: > 150 µM (not active)
[12]
  IC50: 7.21 µM (active)
Streptococcus
  EC50: 48.4 µM (inconclusive)

## Cn1c(-c2ccc(F)cc2)cnc1NCc1cccc([N+](=O)[O-])c1
Fatty acid synthase [13]
  IC50: 5.28 µM (active)
Fatty acid synthase [14]
  IC50: 9.83 µM (active)

## COc1ccc2[nH]c(C(=O)Nc3cccc(C)n3)cc2c1
[5]
  EC50: > 67.5 µM (inactive)

## COCCN(C(=O)CSc1ccc2c(c1)OCCO2)c1c(N)n(CC(C)C)c(=O)[nH]c1=O
[2]
  IC50: > 66 µM (inactive)
[3]
  IC50: > 66 µM (inactive)

## CS(=O)(=O)c1ccc(-c2csc(-c3cccnc3)n2)cc1
Fatty acid synthase [13]
  IC50: 10.3 µM (active)
Fatty acid synthase [14]
  IC50: 7.66 µM (active)

## Cc1cc(C)nc(-n2nc(C)c(Sc3ccc(F)cc3)c2N)n1
[11]
  EC50: > 150 µM (not active)
Streptokinase A
  EC50: > 150 µM (not active)
[15]
  EC50: 2.01 µM (active)
[16]
  EC50: > 60 µM (not active)
Streptococcus
  EC50: > 150 µM (not active)
[5]
  EC50: > 67.5 µM (inactive)

## COc1ccc(C2CC(c3cccc(F)c3)=NN2c2ccc(S(N)(=O)=O)cc2)cc1 (stereo unspecified)
Vero
  CC50: > 25 µM (active)

## O=C(O)c1ccc(C=C(c2nc3ccccc3s2)c2nc3ccccc3s2)cc1
[17]
  AC50: 4.53 µM (active)
Vero
  CC50: > 25 µM (active)

## Cc1cc(C(=O)NC2=NCCS2)cs1
[5]
  EC50: > 67.5 µM (inactive)

## CN(C1CCCCC1)S(=O)(=O)c1ccc(NC(=S)NC(=O)c2cccs2)cc1
[2]
  IC50: > 66 µM (inactive)
[3]
  IC50: > 66 µM (inactive)

## Cc1cc(-c2ccncc2)n2ncc(-c3ccccc3)c2n1
[5]
  EC50: > 67.6 µM (inactive)

## Nc1c(C(=O)Nc2ccc(Br)cc2)sc2nc(N3CCOCC3)c3c(c12)CCCC3
Vero
  CC50: > 25 µM (active)

## Cc1cc(C(=O)OCC(=O)Nc2cccc([N+](=O)[O-])c2)c(C)o1
Fatty acid synthase [13]
  IC50: 9.82 µM (active)
Fatty acid synthase [14]
  IC50: 17.2 µM (active)

## Cc1cc(C)n2c(NC3CCCC3)c(-c3cc4ccccc4o3)nc2n1
[5]
  EC50: > 67.5 µM (inactive)
